The text below walks through data of US9421204B2, “Oligomer modified diaromatic substituted compounds” (priority 2010, dated 2016).

Each structure is given as a SMILES string. Where a name gives a salt, the structure may show the parent alone.

Data set [1] can be described thus: pKa determination (Sirius GLpKa). Format: physicochemical. The protocol: The Sirius GLpKa instrument is used to determine the pKa and Log P. A blank standardization has to be completed first and passed in order to conduct the compound experiments. The solutions used by the instrument for the blank titration include water, a pH solution, and a surfactant (TRITON X-100). The TRITON X-100 was purchased commercially from Sirus. The 0.5% solution of TRITON X-100 was used in the experiment. In a 1 L volumetric flask 5 mls of TRITON X-100 is added and MILLI Q water to volume. The vessels used by the instrument were filled to ⅓ of their volume with each solution. Therefore the assay tray contains one vessel for water, pH solution, and surfactant for the blank run. The temperature of the water bath for the instrument is 25° C. The blank is calculated as an average of three “good” experiments. The “good” was denoted by a green check mark next to the assay number in the computer software. Once the blank was run successfully the instrument was ready to conduct the experiments.
The pKa has to be determined first in order to calculate the Log P. The API is used to determine the pKa needed for the Log P experiment followed by the conjugates. The base compound was first weighed into a vessel. The amount weighed for each sample was 10% of the molecular weight of the compound. The same procedure was followed for each conjugate. The vessels were placed in the assay tray of the instrument. A method had to be set up for the pKa run. The experimental parameters are entered into the computer software. These included sample weight, molecular weight, assay type (aqueous pKa), number of assays (three), and titration range (generally 3.5-12). The run was started. There are three measurements for each run that are averaged to obtain the final results from the data points collected in the calculation software. All runs were denoted as “good” by the green check mark next to the assay number.

Data set [2] in a line: Log P determination (Sirius GLpKa). Format: physicochemical. On the procedure: The Sirius GLpKa instrument is used to determine the pKa and Log P. A blank standardization has to be completed first and passed in order to conduct the compound experiments. The solutions used by the instrument for the blank titration include water, a pH solution, and a surfactant (TRITON X-100). The TRITON X-100 was purchased commercially from Sirus. The 0.5% solution of TRITON X-100 was used in the experiment. In a 1 L volumetric flask 5 mls of TRITON X-100 is added and MILLI Q water to volume. The vessels used by the instrument were filled to ⅓ of their volume with each solution. Therefore the assay tray contains one vessel for water, pH solution, and surfactant for the blank run. The temperature of the water bath for the instrument is 25° C. The blank is calculated as an average of three “good” experiments. The “good” was denoted by a green check mark next to the assay number in the computer software. Once the blank was run successfully the instrument was ready to conduct the experiments. An additional method has to be set up for the Log P determinations for each compound. The conjugates are weighed into vessels in the same manner as for the previous experiment, i.e., 10% of the molecular weight. The vessels are placed in the assay tray of the instrument. The experimental parameters are entered into the computer. These included sample weight, molecular weight, assay type (Partition Log P), number of assays (three), and pKa value of the parent drug from the previous experiment. The run was started. There are three measurements for each run that are averaged to obtain the final results from the data points collected in the calculation software. All runs were denoted as “good” by the green check mark next to the assay number.

The nature of another data set: in vitro. Format: in vitro ADME. Particulars: human. On the procedure:
(§1) Each determination was performed in duplicate.
(§2) Vr is the volume of the receiver compartment in cm^3.
(§3) Vd is the volume of the donor compartment in cm^3.
(§4) A is the area of the cell monolayer (1.13 cm^2 for 12-well Transwell®).
(§5) CN is the nominal dosing concentration of the dosing solution in μM.
(§6) CA is the average of the nominal dosing concentration and the measured 120 minute donor concentration in μM.
(§7) Cr^final is the receiver concentration in μM at the end of the incubation period.
(§8) Cd^final is the concentration of the donor in μM at the end of the incubation period.

The test system of the next data set is Caco-2 monolayers. In words: in vitro. In kind it is in vitro ADME. Particulars: human, Caco-2, 2 h, 10 μM, pH 7.4. On the procedure:
as §1, §2, §3, §4, §5, §6, §7, §8

The nature of data set [3]: Toxicity XTT in CEM-SS cells (cytoprotection assay). Particulars: human, CEM-SS TC50. In kind it is cell-based. The protocol:
(§9) Cell Preparation—CEM-SS cells were passaged in T-75 flasks prior to use in the antiviral assay. On the day preceding the assay, the cells were split 1:2 to assure they were in an exponential growth phase at the time of infection. Total cell and viability quantification was performed using a hemocytometer and Trypan Blue dye exclusion. Cell viability was greater than 95% for the cells to be utilized in the assay. The cells were resuspended at 5×10^4 cells per ml in tissue culture medium and added to the drug containing microtiter plates in a volume of 50 μL.
(§10) Plate Format—Each plate contains cell control wells (cells only), virus control wells (cells plus virus), drug toxicity wells (cells plus drug only), drug colorimetric control wells (drug only) as well as experimental wells (drug plus cells plus virus). Samples were tested in triplicate with eleven half-log dilutions per compound.
(§11) Efficacy and Toxicity XTT—Following incubation at 37° C. in a 5% CO2 incubator, the test plates were stained with the tetrazolium dye XTT (2,3-bis(2-methoxy-4-nitro-5-sulfophenyl)-5-[(phenylamino)carbonyl]-2H-tetrazolium hydroxide). XTT-tetrazolium is metabolized by the mitochondrial enzymes of metabolically active cells to a soluble formazan product, allowing rapid quantitative analysis of the inhibition of HIV induced cell killing by anti-HIV test substances. XTT solution was prepared daily as a stock of 1 mg/mL in RPMI1640. Phenazine methosulfate (PMS) solution was prepared at 0.15 mg/mL in PBS and stored in the dark at −20° C. XTT/PMS stock was prepared immediately before use by adding 40 μL of PMS per ml of XTT solution. Fifty microliters of XTT/PMS was added to each well of the plate and the plate was re-incubated for 4 hours at 37° C. Plates were sealed with adhesive plate sealers and shaken gently or inverted several times to mix the soluble fosmazan product and the plate was read spectrophotometrically at 450/650 nm with a Molecular Devices Vmax plate reader.
(§12) Data Analysis—Raw data was collected from the Softmax Pro 4.6 software and imported into a Excel XLFit4 spreadsheet for analysis by four parameter curve fit calculations. Both antiviral activity and toxicity are calculated.

A further data set has as its system CEM-SS cells. Described as above. In kind it is cell-based. Particulars: human. The protocol: as §9, §10, §11, §12

As to `CC(C)Nc1cccnc1N1CCN(C(=O)c2cc3cc(NS(C)(=O)=O)ccc3[nH]2)CC1` [Delavirdine Mesylate, reference compound], in data set [1], the pKa1 is recorded as 4.323 and the pKa2 amounted to 9.272. In data set [2], this compound yielded a logP of 3.5. This compound had a Papp A→B at 2 hours, 10 μM in “in vitro” (Caco-2, pH 7.4, Average Papp, A→B) of 9.87 ×10⁻⁶ cm/s. In “in vitro” (Caco-2, pH 7.4, Average Papp, B→A), this compound came in with a Papp B→A at 2 hours, 10 μM of 67.9 ×10⁻⁶ cm/s. In the data set “in vitro” (Caco-2, pH 7.4, Recovery (%) A→B), this compound yielded a recovery at 2 h, 10 μM of 65%. For the same compound, in the data set on Caco-2 monolayers, the “Recovery (%) A→B” value is given as 82% and the “Recovery (%) B→A” value amounted to 86%. The compound further came in with a CC50 in data set [3] of 27.2 µM. Further, in the data set with CEM-SS cells, the CC50 stood at 52.4 µM.
